{"source": "patent US20040208942A1", "about": "“Alpha lipoic acid based food supplement for increasing lean muscle mass and strength” (priority 2000, published 2004)", "origin": "cited, not measured here"}
{"smiles": "O=C(O)CCCCC1CCSS1", "note": "(stereo not drawn) [α lipoic acid]", "values": [{"measurement": "body's utilization of blood sugar", "setting": "type II diabetes", "result": "significantly increase"}, {"measurement": "increase of the metabolic clearance rate of glucose", "setting": "type II diabetics", "result": 50, "unit": "%"}]}
